Test results as given in ChEMBL document CHEMBL1201862, “PubChem BioAssay data set” (2004).
Activity calls are given as the source filed them.

How the values were obtained:
[1] = target: T1, Corticotropin-releasing factor receptor 2/Corticotropin-releasing factor-binding protein (Homo sapiens, UniProt P24387+Q13324); assay: Dose Response confirmation of uHTS hits for small molecule antagonists of the CRF-binding protein and CRF-R2 receptor complex.; assay type: functional; conditions: read-out: IC50_Mean
T1 sequence (Q13324 whole entry): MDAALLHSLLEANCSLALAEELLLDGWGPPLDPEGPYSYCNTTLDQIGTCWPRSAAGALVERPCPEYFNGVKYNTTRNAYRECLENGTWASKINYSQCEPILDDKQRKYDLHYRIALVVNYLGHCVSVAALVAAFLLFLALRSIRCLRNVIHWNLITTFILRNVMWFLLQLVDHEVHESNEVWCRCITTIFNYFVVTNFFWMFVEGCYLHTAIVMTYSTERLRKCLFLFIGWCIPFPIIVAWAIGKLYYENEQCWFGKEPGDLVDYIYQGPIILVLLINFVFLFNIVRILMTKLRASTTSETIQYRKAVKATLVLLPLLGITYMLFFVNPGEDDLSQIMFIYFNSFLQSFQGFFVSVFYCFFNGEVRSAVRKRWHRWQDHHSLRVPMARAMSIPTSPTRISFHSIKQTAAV
T1 sequence (P24387 whole entry): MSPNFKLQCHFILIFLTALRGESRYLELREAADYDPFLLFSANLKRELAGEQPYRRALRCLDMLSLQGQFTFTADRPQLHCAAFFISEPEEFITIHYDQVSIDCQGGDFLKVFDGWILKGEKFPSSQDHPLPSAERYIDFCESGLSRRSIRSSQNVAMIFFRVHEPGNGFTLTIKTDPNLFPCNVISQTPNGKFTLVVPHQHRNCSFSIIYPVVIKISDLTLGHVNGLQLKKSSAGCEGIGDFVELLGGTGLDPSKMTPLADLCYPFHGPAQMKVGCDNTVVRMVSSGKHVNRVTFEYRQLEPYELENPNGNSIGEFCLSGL

[2] = blockers of CRF-binding protein–CRF-R2 complex – cell-based, uHTS hits, 384-well, dose response (AID 651639); assay type: functional, Homo sapiens; conditions: read-out: IC50_Mean
[3] = target: T1, Corticotropin-releasing factor receptor 2/Corticotropin-releasing factor-binding protein; assay: activators of CRF receptor 2 with binding protein – uHTS hits, confirmation (AID 602473); assay type: functional; conditions: read-out: EC50_Mean
[4] = target: T2, Carboxy-terminal domain RNA polymerase II polypeptide A small phosphatase 1 (Homo sapiens, UniProt Q9GZU7); assay: CTDSP1 inhibitors, concentration-response, biochemical, absorbance readout, ultra-high-throughput screen actives (AID 540297); assay type: functional
T2 sequence (Q9GZU7 whole entry): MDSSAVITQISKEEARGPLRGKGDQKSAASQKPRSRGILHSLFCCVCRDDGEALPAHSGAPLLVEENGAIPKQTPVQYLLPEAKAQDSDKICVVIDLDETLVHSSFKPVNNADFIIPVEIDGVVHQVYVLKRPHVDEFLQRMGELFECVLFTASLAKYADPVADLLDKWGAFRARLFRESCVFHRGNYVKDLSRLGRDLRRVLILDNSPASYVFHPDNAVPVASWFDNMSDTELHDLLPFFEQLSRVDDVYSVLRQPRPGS

[5] = inhibition of ARNT PAS-B/TACC3 complex formation – biochemical, AlphaScreen, cherry-picked samples, confirmation (AID 651703); assay type: functional, Homo sapiens;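 further: His-tagged ARNT PAS-B domain paired with GST-TACC3 E629A dimer coactivator fragment; potency of inhibitors that break up the complex and lower AlphaScreen signal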
Protein RecA = target: T3, Protein RecA (Mycobacterium tuberculosis, UniProt P9WHJ3); assay: Fluorescence Cell-Free Homogeneous Dose Retest to Identify Inhibitors of RecA-Intein Splicing Activity. [Related pubchem assays (depositor defined):AID2097, AID2223, AID489010, AID492950]; assay type: functional
T3 sequence (P9WHJ3 whole entry): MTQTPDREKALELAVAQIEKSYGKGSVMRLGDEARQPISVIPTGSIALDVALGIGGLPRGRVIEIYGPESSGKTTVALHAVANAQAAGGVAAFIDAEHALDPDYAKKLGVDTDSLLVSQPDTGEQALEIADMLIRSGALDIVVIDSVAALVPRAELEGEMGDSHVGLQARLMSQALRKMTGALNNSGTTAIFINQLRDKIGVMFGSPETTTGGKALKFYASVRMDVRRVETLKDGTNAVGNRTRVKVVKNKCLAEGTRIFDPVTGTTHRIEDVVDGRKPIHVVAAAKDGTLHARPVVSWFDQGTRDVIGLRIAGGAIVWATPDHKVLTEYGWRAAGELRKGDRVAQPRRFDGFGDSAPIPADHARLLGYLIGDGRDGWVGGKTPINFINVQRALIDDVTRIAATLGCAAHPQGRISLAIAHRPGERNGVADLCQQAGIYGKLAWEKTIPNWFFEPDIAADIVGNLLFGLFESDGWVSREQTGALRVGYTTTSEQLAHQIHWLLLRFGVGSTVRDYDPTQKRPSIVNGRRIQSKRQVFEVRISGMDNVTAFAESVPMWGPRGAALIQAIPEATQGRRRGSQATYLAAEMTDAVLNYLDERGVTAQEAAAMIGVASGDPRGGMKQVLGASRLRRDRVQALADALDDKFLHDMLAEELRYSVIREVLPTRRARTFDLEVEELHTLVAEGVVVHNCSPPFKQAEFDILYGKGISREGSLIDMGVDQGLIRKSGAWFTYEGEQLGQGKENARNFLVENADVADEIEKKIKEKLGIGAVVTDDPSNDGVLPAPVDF

[6] = target: T4, Replicative DNA helicase DnaB (Mycobacterium tuberculosis, UniProt P9WMR3); assay: DnaB intein splicing inhibitors, dose response, biochemical, cell-free fluorescence (AID 449749); assay type: functional
T4 sequence (P9WMR3 whole entry): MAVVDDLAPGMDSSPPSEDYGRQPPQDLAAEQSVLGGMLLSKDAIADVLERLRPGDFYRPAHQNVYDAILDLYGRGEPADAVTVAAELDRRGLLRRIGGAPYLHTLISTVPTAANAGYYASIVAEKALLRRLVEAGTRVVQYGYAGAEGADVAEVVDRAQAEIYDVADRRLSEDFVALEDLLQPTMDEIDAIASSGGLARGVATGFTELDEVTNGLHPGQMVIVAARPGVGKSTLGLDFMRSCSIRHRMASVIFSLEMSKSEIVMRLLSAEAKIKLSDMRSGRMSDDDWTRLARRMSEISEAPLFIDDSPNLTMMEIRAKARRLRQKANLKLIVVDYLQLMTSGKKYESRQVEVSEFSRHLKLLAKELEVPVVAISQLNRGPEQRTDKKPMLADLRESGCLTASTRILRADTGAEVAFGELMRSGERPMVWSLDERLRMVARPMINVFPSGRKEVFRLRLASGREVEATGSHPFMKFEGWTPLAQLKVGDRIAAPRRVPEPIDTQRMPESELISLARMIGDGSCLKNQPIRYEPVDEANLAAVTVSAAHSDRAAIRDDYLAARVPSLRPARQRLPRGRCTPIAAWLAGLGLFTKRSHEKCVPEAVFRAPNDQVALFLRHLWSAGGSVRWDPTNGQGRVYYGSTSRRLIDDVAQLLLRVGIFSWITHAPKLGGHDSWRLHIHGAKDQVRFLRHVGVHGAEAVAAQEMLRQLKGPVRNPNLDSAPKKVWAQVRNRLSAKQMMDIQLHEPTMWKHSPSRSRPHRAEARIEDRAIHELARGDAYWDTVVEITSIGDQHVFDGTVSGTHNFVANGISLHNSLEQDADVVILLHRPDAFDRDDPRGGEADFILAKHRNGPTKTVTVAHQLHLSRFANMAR

[7] = bead-based luminescence quenchers, dual-tagged ARNT – biochemical, AlphaScreen, cherry-pick, artefact control for ARNT-TACC3 interaction inhibitor project, dose response (AID 651705); assay type: functional;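 further: AlphaScreen bead proximity signal that flags compounds interfering with the detection technology; potency reflects signal decrease which marks the compound as an assay artifact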
[8] = target: Hepatocyte nuclear factor 4-alpha (Homo sapiens, UniProt P41235); assay type: functional, cell-based;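 further: biochemical luminescence-based dose-response counterscreen measuring inhibition of HNF4 dimerization, run alongside a screen for blockers of ABHD5–perilipin-5 interaction; split luciferase complementation of HNF4 fusion proteins in cell lysate measuring dimerization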
[9] = target: Potassium voltage-gated channel subfamily KQT member 2 (Rattus norvegicus, UniProt O88943); assay: blockers of KCNQ2 channel current – cell-based, automated electrophysiology, set II, rat KCNQ2, dose response (AID 588637); assay type: functional
[10] = target: DNA (cytosine-5)-methyltransferase 1 (Homo sapiens, UniProt P26358); assay: inhibition of DNA methylation by DNMT1 – biochemical, fluorescent molecular beacon, confirmation (AID 602386); assay type: functional
Estrogen receptor beta [11] = target: T5, Estrogen receptor beta (Homo sapiens, UniProt Q92731); assay: blockers of SRC-3 recruitment to ERβ – biochemical, ELISA, streptavidin-HRP readout, orthogonal assay, confirmation (AID 1060)
Streptococcus = assay: GAS UMAA2166 growth inhibition – luminescence, BacTiterGlo, counter-screen for streptokinase expression inhibitor project, dose response (AID 1915); assay type: functional, organism-based;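 further: potency for reduction of bacterial viability or growth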
Genome polyprotein = Genome polyprotein (dengue virus type 2, UniProt P29990); assay: flavivirus cap methylation enzyme inhibition – biochemical, confirmation dose response, primary screen (AID 588689); assay type: functional
Nonstructural protein 1 = Nonstructural protein 1 (Influenza A virus, UniProt Q194T2); assay type: functional, Influenza A virus (A/California/07/2009(H1N1))
[12] = system: Streptococcus sp. 'group A'; assay: Streptococcus pyogenes SK(-)GAS viability under kanamycin – luminescence, BacTiterGlo, confirmation, counter-screen for streptokinase expression inhibitor project, dose response (AID 1900); assay type: functional, organism-based
Estrogen receptor = target: T6, Estrogen receptor (Homo sapiens, UniProt P03372);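 further: potency for inhibiting coactivator peptide recruitment to the receptor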
T6 sequence (P03372 whole entry): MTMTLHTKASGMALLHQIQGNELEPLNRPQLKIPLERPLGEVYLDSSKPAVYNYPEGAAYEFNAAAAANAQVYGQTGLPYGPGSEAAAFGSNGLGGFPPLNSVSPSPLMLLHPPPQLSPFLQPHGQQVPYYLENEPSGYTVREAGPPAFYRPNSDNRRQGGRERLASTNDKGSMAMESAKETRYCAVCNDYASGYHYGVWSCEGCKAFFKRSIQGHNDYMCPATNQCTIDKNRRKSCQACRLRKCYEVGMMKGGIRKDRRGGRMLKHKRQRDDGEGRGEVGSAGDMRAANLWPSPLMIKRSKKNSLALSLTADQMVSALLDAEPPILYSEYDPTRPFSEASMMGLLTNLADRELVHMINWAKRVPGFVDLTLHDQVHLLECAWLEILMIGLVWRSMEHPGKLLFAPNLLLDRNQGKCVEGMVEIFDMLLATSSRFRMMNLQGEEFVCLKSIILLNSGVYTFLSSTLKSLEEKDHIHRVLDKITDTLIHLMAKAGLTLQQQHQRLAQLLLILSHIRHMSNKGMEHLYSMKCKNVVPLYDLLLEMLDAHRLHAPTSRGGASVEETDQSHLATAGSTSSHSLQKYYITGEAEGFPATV

Estrogen receptor beta [13] = target: T5, Estrogen receptor beta
Interleukin-8 = target: T7, Interleukin-8 (Homo sapiens, UniProt P10145); assay: Dose Response confirmation of uHTS small molecule hits for cystic fibrosis induced NFkb Inhibitors in a PAF-induced IL8 counterscreen.; assay type: functional; conditions: read-out: IC50_Mean
T7 sequence (P10145 whole entry): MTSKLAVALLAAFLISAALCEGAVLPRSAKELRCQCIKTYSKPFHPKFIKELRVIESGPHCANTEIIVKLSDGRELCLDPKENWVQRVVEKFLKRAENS

[14] = target: T8, Aryl hydrocarbon receptor (Homo sapiens, UniProt P35869); conditions: Potency;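 further: confirmatory quantitative high-throughput screen measuring activation of the AhR signaling pathway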
T8 sequence (P35869 whole entry): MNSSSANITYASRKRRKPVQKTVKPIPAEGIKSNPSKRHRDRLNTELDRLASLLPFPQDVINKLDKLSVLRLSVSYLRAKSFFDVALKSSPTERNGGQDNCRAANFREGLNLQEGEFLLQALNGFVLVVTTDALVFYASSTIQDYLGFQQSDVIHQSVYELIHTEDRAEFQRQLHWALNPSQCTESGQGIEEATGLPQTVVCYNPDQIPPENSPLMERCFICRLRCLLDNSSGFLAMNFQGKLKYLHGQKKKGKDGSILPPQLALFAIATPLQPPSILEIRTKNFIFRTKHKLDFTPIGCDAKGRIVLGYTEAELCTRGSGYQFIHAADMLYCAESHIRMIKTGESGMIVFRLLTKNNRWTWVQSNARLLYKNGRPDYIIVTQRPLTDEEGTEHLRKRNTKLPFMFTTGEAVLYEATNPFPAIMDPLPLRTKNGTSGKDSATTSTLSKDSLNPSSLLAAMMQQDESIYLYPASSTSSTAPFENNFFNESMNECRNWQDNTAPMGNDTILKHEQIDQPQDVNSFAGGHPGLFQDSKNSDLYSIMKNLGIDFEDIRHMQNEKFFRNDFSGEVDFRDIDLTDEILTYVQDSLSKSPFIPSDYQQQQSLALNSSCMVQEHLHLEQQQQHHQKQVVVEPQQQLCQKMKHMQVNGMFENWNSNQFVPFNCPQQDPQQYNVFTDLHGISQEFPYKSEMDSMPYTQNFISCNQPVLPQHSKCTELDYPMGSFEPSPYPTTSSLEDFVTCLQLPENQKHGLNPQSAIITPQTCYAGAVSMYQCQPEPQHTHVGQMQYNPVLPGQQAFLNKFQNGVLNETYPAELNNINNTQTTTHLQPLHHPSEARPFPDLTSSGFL

[15] = A Cell Based Secondary Assay to Explore Cytotoxicity in THP-1 Cells of Compounds that Modulate Mycobacterium tuberculosis in Media Containing Glycerol versus Media without Glycerol (2).; assay type: functional
[16] = Vero cell cytotoxicity, cytotoxicity control for M. tuberculosis inhibitor project, purified and synthesized samples, set 3 (AID 504684); assay type: functional

T5 sequence (Q92731 whole entry): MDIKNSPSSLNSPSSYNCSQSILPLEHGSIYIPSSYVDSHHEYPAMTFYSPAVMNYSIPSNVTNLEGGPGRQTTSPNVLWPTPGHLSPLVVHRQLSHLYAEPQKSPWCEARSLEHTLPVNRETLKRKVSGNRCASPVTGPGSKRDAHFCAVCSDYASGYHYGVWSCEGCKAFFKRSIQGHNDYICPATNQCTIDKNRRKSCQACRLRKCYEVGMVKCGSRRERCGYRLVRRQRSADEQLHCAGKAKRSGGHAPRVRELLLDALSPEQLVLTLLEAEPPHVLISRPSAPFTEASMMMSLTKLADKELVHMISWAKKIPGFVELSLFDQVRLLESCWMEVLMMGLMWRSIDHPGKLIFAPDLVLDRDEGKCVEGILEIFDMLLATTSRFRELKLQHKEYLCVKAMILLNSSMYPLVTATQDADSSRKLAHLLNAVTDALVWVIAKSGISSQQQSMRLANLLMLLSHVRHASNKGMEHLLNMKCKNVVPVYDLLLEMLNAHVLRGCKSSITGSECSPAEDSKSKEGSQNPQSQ
Chain of DNA (cytosine-5)-methyltransferase 1 (P26358 whole entry): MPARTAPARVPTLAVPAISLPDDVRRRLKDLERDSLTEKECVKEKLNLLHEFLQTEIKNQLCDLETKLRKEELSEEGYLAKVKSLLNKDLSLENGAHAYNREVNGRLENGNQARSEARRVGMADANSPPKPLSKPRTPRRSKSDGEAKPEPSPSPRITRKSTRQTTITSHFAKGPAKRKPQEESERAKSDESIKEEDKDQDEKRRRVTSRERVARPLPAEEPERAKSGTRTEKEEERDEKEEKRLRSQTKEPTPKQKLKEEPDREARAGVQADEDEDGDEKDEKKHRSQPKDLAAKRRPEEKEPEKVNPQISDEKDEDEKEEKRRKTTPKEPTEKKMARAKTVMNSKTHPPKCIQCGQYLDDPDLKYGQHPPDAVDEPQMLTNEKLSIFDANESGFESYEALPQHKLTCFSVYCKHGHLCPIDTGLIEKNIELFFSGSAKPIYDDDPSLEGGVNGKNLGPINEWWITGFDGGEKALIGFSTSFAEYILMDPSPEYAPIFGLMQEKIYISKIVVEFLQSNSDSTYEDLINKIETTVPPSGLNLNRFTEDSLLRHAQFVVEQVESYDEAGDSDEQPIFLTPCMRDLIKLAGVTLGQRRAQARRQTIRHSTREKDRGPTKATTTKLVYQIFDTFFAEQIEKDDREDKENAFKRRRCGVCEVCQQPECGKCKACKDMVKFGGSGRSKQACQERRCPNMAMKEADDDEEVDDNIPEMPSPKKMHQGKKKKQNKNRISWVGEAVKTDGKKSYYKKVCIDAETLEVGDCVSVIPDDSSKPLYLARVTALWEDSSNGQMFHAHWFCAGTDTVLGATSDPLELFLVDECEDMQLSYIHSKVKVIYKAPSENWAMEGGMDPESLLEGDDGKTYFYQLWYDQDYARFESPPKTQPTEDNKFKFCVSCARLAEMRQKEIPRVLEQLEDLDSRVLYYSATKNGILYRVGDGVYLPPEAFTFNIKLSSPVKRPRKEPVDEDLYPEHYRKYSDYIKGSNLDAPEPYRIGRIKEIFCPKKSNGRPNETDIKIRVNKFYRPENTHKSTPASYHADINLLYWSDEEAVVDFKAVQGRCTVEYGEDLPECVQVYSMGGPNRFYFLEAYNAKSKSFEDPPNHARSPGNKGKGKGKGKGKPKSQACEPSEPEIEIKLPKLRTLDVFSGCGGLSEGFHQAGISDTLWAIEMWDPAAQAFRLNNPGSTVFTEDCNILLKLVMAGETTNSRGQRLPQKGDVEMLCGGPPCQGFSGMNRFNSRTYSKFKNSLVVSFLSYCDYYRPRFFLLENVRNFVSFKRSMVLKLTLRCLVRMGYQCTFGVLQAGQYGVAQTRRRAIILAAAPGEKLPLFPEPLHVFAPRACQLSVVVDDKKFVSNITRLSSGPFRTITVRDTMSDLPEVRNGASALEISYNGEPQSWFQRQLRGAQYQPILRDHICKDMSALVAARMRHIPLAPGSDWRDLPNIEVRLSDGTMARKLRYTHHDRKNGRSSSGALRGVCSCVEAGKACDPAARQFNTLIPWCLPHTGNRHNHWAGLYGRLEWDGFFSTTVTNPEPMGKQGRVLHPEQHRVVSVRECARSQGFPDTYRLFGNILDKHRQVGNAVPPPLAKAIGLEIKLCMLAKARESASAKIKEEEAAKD
Chain of Hepatocyte nuclear factor 4-alpha (P41235 whole entry, the tested form may be a part): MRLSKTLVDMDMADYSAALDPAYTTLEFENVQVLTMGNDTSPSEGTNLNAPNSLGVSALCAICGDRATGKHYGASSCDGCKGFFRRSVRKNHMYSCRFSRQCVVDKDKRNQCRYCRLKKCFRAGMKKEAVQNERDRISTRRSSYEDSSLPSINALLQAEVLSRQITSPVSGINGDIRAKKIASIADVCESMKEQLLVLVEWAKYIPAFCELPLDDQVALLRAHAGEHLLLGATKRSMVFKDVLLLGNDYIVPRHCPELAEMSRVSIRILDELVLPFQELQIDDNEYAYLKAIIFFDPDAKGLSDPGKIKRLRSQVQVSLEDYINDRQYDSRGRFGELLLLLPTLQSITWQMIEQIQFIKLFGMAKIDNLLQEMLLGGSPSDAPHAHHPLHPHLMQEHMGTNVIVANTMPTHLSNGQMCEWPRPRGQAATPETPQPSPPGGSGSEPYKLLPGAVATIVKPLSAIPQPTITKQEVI
Chain of Potassium voltage-gated channel subfamily KQT member 2 (O88943 whole entry): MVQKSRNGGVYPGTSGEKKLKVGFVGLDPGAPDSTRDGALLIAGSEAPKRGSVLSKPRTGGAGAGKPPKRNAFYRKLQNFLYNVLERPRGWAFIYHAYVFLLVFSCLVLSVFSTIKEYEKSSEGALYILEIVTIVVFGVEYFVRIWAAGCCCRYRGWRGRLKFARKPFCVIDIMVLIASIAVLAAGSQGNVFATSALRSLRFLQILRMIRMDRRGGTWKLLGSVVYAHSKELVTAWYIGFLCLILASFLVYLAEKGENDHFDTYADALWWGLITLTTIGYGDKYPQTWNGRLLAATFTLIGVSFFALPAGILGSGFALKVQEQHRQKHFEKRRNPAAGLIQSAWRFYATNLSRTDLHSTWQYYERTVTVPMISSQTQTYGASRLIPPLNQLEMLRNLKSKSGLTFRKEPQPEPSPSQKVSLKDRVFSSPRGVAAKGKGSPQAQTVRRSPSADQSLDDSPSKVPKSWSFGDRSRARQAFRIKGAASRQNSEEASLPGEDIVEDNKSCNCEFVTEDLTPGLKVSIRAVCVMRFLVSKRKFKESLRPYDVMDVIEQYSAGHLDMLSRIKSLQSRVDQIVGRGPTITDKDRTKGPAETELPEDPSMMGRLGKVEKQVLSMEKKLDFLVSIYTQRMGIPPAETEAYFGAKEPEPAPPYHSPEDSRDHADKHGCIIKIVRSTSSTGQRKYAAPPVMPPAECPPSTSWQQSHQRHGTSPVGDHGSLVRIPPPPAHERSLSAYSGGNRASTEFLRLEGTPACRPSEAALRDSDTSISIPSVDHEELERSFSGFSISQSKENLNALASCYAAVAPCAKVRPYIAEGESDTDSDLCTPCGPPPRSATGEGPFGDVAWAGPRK
Chain of Nonstructural protein 1 (Q194T2 whole entry): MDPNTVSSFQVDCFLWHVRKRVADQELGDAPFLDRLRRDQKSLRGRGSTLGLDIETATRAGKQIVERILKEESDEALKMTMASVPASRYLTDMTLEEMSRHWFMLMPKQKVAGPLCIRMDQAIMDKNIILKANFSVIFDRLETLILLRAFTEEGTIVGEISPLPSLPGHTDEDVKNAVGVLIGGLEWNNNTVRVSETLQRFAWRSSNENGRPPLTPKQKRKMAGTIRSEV
Chain of Genome polyprotein (P29990 2492-3391 limits assumed): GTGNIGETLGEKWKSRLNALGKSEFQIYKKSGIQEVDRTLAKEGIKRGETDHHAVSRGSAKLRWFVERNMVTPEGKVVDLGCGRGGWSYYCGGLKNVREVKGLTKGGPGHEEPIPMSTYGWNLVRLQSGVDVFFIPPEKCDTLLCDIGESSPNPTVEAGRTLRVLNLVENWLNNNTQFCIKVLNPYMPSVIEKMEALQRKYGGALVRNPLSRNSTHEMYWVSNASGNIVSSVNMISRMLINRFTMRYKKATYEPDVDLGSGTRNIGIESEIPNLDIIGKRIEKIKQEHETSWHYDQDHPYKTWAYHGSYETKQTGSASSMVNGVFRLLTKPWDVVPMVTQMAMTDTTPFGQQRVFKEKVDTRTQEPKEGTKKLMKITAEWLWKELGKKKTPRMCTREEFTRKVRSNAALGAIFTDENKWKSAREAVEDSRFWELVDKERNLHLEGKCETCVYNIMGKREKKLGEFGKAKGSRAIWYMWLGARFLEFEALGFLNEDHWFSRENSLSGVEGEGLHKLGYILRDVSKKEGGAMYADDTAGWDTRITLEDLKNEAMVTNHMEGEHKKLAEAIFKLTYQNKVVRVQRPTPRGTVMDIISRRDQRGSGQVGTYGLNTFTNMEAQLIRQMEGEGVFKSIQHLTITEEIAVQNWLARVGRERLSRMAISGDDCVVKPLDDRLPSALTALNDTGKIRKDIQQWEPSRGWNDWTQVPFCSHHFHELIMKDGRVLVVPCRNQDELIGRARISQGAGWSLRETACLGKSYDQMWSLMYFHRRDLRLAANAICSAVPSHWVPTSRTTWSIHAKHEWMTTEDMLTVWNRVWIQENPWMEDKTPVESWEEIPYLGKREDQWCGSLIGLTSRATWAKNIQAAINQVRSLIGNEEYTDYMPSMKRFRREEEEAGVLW

C=CCn1cnc2c(c1=O)c1nc3ccccc3nc1n2/N=C/c1cccc(OC)c1OC
IC50 [1]: 3.36 µM (active)
IC50 [2]: 2.21 µM (active)
EC50 [3]: > 53 µM (inactive)
IC50 [4]: 10.1 µM (active)

COC(=O)CC1=NN(c2nc(C)cc(C)n2)C(=O)C1
AC50 [5]: 123 µM (active)
EC50 (Protein RecA): > 380 µM (inactive)
AC50 [6]: 103 µM (active)

Cc1cccc(NC(=O)CSc2cccc3cccnc23)c1
AC50 [7]: 76.9 µM (active)

O=C(NC1CCCCC1)C(c1cccc2ccccc12)n1c(=O)c(-c2ccco2)nc2ccccc21 (centres undefined)
IC50 [8]: 1.48 µM (active)

O=C(OCC(=O)N(CCc1ccccc1)Cc1ccccc1)c1ccccc1O
IC50 [9]: 1.83 µM (active)

Cc1nn(-c2ccccc2)c(Cl)c1/C=N/Nc1ccc(S(=O)(=O)Nc2ccccc2C(=O)O)cc1[N+](=O)[O-]
IC50 [10]: 4.29 µM (active)
IC50 (Estrogen receptor beta [11]): > 50 µM (not active)
EC50 (Streptococcus): 4.27 µM (active)
IC50 (Genome polyprotein): 33.1 µM (active)
IC50 (Nonstructural protein 1): 67.6 µM (active)
EC50 [12]: 1.86 µM (active)
IC50 (Estrogen receptor): 6.84 µM (active)
IC50 (Estrogen receptor beta [13]): 7.26 µM (active)

OCCN1CCN(c2ncnc3ccc(Br)cc23)CC1
IC50 (Interleukin-8): 22 µM (inactive)

CC1(COc2ccc(CC3SC(=O)NC3=O)cc2)CCCCC1 (centres undefined) [CIGLITAZONE]
AC50 [14]: 56.2 µM (inconclusive)

CCOC(=O)C(C)Sc1ncnc2c1nnn2-c1ccc(F)cc1 (centres undefined)
EC50 (Protein RecA): 10.9 µM (active)
AC50 [6]: 10.4 µM (active)
CC50 [15]: 55.2 µM (active)
CC50 [16]: 67.1 µM (active)
